Measurements as given in publication PMC6680932, “Structure–Antioxidant–Antiproliferative Activity Relationships of Natural C7 and C7–C8 Hydroxylated Flavones and Flavanones” (Antioxidants, 2019).
Read-outs that look alike come from different tables or passages of the source.

How the values were obtained:
[1] = test system: DU 145 (prostate cancer); assay: Antiproliferative activity in vitro, SRB assay; format: cell-based, human; settings: read-out: IC50 ± SD DU 145
[2] = test system: LoVo (colon cancer); assay: Antiproliferative activity in vitro, SRB assay; format: cell-based, human; settings: read-out: IC50 ± SD LoVo
Protocol: (§1) The antiproliferative studies were performed in vitro using human cancer cell lines—MV-4-11 (biphenotypic B myelomonocytic leukemia), MCF7 (breast carcinoma), LoVo (colon cancer), LoVo/DX (colon cancer doxorubicin-resistant), and DU 145 (prostate cancer)—and normal human cell lines—MCF 10A (breast cells) and HLMEC (lung microvascular endothelial cells). The cell lines MV-4-11, LoVo, DU 145, and MCF 10A were obtained from the American Type Culture Collection (Rockville, Maryland, USA), MCF7 from the European Collection of Authenticated Cell Cultures (ECACC, Salisbury, UK), LoVo/DX courtesy of Professor E. Borowski (Technical University of Gdansk, Poland), and HLMECs (which had been already immortalized by transfection with pSV3-neoplasmid containing large T-antigen gene) were the kind gift of Professor Claudine Kieda (Center for Molecular Biophysics, Orleans, France). The cell lines are being maintained in the Hirszfeld Institute of Immunology and Experimental Therapy, Polish Academy of Sciences (HIIET, PAS), Wroclaw, Poland. All cell lines were grown at 37 °C with 5% CO2 humidified atmosphere. The MV-4-11 cells were cultured in RPMI 1640 medium with GlutaMAX (Gibco, Scotland, UK), supplemented with 1 mM sodium pyruvate and 10% fetal bovine serum (both from Sigma-Aldrich, Poznan, Poland). The MCF7 cells were cultured in Eagle medium (HIIET, PAS, Wroclaw, Poland) supplemented with 2 mM L-glutamine, 10% fetal bovine serum, 1% nonessential amino acid solution, and 0.8 mg/L of insulin (all from Sigma-Aldrich, Poznan, Poland). The LoVo and LoVo/DX cells were cultured in a 1:1 (v/v) mixture of RPMI 1640 and Opti-MEM (both HIIET, PAS, Wroclaw, Poland), supplemented with 1 mM sodium pyruvate, 2 mM L-glutamine, and 5% fetal bovine serum (all from Sigma-Aldrich, Poznan, Poland). For LoVo/DX cells, additionally 10 µg/100 mL of doxorubicin (Accord Healthcare) was added to the medium. DU 145 cells were cultured in Eagle medium (HIIET, PAS, Wroclaw, Poland) supplemented with 1 mM sodium pyruvate, 4 mM L-glutamine, and 10% fetal bovine serum (all from Sigma-Aldrich, Poznan, Poland). The MCF 10A cells were cultured in the F-12 nutrient mixture (Gibco, Scotland, UK), supplemented with 5% horse serum (Gibco, Scotland, UK), 0.05 μg/mL of cholera toxin (Vibrio cholerae), 0.5 μg/mL of hydrocortisone, 10 μg/mL of insulin, and 20 ng/mL of human epidermal growth factor (all from Sigma-Aldrich, Poznan, Poland). The HLMEC cells were cultured in the RPMI 1640 medium (HIIET, PAS, Wroclaw, Poland) with the addition of 2 mM L-glutamine (Sigma-Aldrich, Poznan, Poland) and 10% fetal bovine serum (GE Healthcare). All culture media were supplemented with 100 units/mL penicillin (Polfa Tarchomin S.A., Warsaw, Poland) and 100 µg/mL streptomycin (Sigma-Aldrich, Poznan, Poland). Twenty-four hours before addition of the tested agents, the cells were plated in 96-well plates (Sarstedt, Germany) at a density of 1 × 10^4 (1 × 10^3 for HLMEC and 0.75 × 10^4 for MCF7) cells per well in 100 μL of culture medium.
(§2) Tested compounds were dissolved in DMSO and then diluted in a 1:1 (v/v) mixture of RPMI 1640 (HIIET, PAS, Wroclaw, Poland) and Opti-MEM (Gibco, Scotland, UK) medium supplemented with 2 mM L-glutamine (Sigma-Aldrich, Poznan, Poland), 5% fetal bovine serum (GE Healthcare), 100 units/mL penicillin (Polfa Tarchomin S.A., Warsaw, Poland), and 100 µg/mL streptomycin (Sigma-Aldrich, Poznan, Poland). The antiproliferative effects of the flavonoids were examined after 72 h of exposure of the cultured cells to varying concentrations of the tested agents (from 0.1 to 100 μg/mL) using the MTT (for MV-4-11 cells) or SRB assay described below. Cisplatin (chemotherapy drug used to treat a number of cancers) was used as a positive control. The results are presented as an inhibitory concentration 50 (IC50), which is the concentration of the tested agent that inhibits proliferation of the cell population by 50%. IC50 values for each experiment were calculated separately. […]

[3] = test system: MCF7 (breast carcinoma); assay: Antiproliferative activity in vitro, SRB assay; format: cell-based, human; settings: read-out: IC50 ± SD MCF7
Protocol: as §1, §2

[4] = test system: MCF 10A (breast cells); assay: Antiproliferative activity in vitro, SRB assay; format: cell-based, human; settings: read-out: IC50 ± SD MCF 10A
Protocol: as §1, §2

[5] = test system: HLMEC (lung microvascular endothelial cells); assay: Antiproliferative activity in vitro, SRB assay; format: cell-based, human; settings: read-out: IC50 ± SD HLMEC
Protocol: as §1, §2

[6] = test system: MV-4-11 (biphenotypic B myelomonocytic leukemia); assay: Antiproliferative activity in vitro, MTT assay; format: cell-based, human; settings: read-out: IC50 ± SD MV-4-11
[7] = test system: LoVo/DX (colon cancer doxorubicin-resistant); assay: Antiproliferative activity in vitro, SRB assay; format: cell-based, human; settings: 72 h exposure, read-out: IC50 ± SD LoVo/DX
[8] = ABTS radical cation decolorization assay; settings: for TEAC ABTS: 6 min incubation, 734 nm, mean ± SD; for increase of antioxidant activity in ABTS test, biotransformation product vs substrate: 8-hydroxylated product relative to the substrate from which it was obtained
Protocol: (§3) The antioxidant capacity of flavonoids was measured in three separate tests: ABTS, DPPH, and ferric ion reducing antioxidant power (FRAP) assays (ABTS, DPPH, and FRAP reagents from Sigma-Aldrich). All tested compounds were dissolved in DMSO. All determinations were performed in triplicate. Standard curves were prepared for all assays using different concentrations of Trolox (6-hydroxy-2,5,7,8-tetramethylchroman-2-carboxylic acid) (Sigma-Aldrich). Trolox is a water-soluble analogue of vitamin E with high antioxidant activity, commonly used as a control and a reference in studies of antioxidant activity. The results were expressed as the equivalent of μmol Trolox per μmol of the test compound. The absorbance was measured using a UV-2401 PC spectrophotometer (Shimadzu, Kyoto, Japan). Concentrations of the tested samples were in the range from 50 µg/mL to 10 mg/mL.
The radical cation scavenging capacity of the tested compounds was examined against ABTS^+ (2,2’-azino-bis(3-ethylbenzo-thiazoline-6-sulfonic acid) according to the procedure described by Re et al. with some modifications. The test sample (30 μL) of known concentration was mixed in a polystyrene cuvette with 3 mL of ABTS solution with a measured absorption of 0.700 at a wavelength of λ = 734 nm. After 6 min of incubation, the absorption of samples was recorded. The ABTS reagent was freshly prepared before each experiment.

[9] = DPPH free radical scavenging activity assay; settings: for TEAC DPPH: 10 min, 517 nm, mean ± SD; for increase of antioxidant activity in DPPH test, biotransformation product vs substrate: 8-hydroxylated product relative to the substrate from which it was obtained
Protocol: as §3
The DPPH (2,2-diphenyl-1-picrylhydrazyl) radical scavenging activity of samples was determined according to the method described by Yen and Chen with some modifications. Samples (0.1 mL) of known concentration were mixed in polystyrene cuvettes with 2 mL of 0.04 mM DPPH in ethanol and 0.4 mL of ethanol. The absorbance was measured after 10 min at λ = 517 nm. The DPPH reagent was freshly prepared before each experiment.

[10] = FRAP (ferric ion reducing antioxidant power) assay; settings: for TEAC FRAP: 10 min, 593 nm, mean ± SD
Protocol: as §3
The FRAP method is based on measuring the ability of antioxidants to reduce ferric 2,4,6-tris(2-pyridyl)-1,3,5-triazine [Fe(III)-TPTZ] in the blue colored ferrous form, which absorbs light at λ = 593 nm. The Fe(III)-TPTZ reagent was prepared as a mixture of acetate buffer (pH 3.6), 10 mM TPTZ in 40 mM HCl, and 20 mM FeCl3 in the ratio of 10:1:1 (v/v/v). The FRAP reagent was freshly prepared before each experiment. The samples (0.1 mL) were mixed in polystyrene cuvettes with 3 mL of ferric complex and 0.9 mL of distilled water. The absorbance was measured after 10 min at λ = 593 nm.

[11] = 72 h exposure, SRB, normal cell line
[12] = Homo sapiens, LoVo, 72 h, 72 h exposure, SRB
[13] = Homo sapiens, MCF7, 72 h exposure, SRB
[14] = Homo sapiens, Endothelial cell, 72 h exposure, SRB, normal cell line
[15] = Homo sapiens, MV4-11, 72 h exposure

Compound | TEAC ABTS [8] | IC50 [2, 12] [µM] | IC50 [3, 13] [µM] | IC50 [5, 14] [µM] | IC50 ([7]; Homo sapiens, LoVo/DX) [µM] | TEAC DPPH [9] | TEAC FRAP [10] | increase of antioxidant activity in ABTS test, biotransformation product vs substrate [8] | increase of antioxidant activity in DPPH test, biotransformation product vs substrate [9] | other results
N.N.[Cl][Pt][Cl] [Cisplatin, reference compound] | – | – | – | – | – | – | – | – | – | IC50 ([1]; 72 h exposure, SRB): 1.47 ± 0.12 µM; IC50 ([2]; 72 h exposure, SRB): 5.87 ± 1.72 µM; IC50 ([3]; 72 h exposure, SRB): 7.5 ± 1.32 µM; IC50 [4, 11]: 10.6 ± 1.17 µM; IC50 [5, 11]: 1.07 ± 0.05 µM; IC50 ([6]; 72 h exposure): 1.6 ± 0.33 µM; IC50 [7]: 3.23 ± 0.77 µM
O=c1cc(-c2ccccc2)oc2cc(O)cc(O)c12 [Compound 1, Chrysin] | 0.084 ± 0.011 µmol trolox per µmol of tested | 28 ± 8.17 | 75 ± 26.1 | 22.9 ± 2.02 | 13 ± 1.29 | 0.004 ± 0.001 µmol trolox per µmol of tested | – | – | – | IC50 ([4]; Homo sapiens, MCF-10A, 72 h exposure, SRB, normal cell line): 27 ± 12 µM; IC50 [6, 15]: 15.1 ± 1.99 µM
COc1ccc(-c2cc(=O)c3c(O)cc(O)cc3o2)cc1O [Compound 4, diosmetin] | 1.712 ± 0.041 µmol trolox per µmol of tested | 15 ± 2.2 | 123 ± 37.4 | 14.4 ± 1.95 | 13.4 ± 3.02 | 0.008 ± 0.001 µmol trolox per µmol of tested | – | – | – | IC50 [6, 15]: 8.39 ± 3.53 µM
O=C1C[C@@H](c2ccc(O)c(O)c2)Oc2cc(O)cc(O)c21 [Compound 7, eriodictyol] | 13.988 ± 0.251 µmol trolox per µmol of tested | – | – | – | 99.2 ± 12.5 | 9.582 ± 0.315 µmol trolox per µmol of tested | 10.619 ± 0.319 µmol trolox per µmol of tested | – | – | IC50 ([1]; Homo sapiens, DU-145, 72 h): 121 ± 18.4 µM; IC50 ([2]; Homo sapiens, LoVo, 72 h): 101 ± 10.9 µM; IC50 ([3]; Homo sapiens, MCF7, 72 h): 151 ± 9.31 µM; IC50 ([4]; Homo sapiens, MCF-10A, 72 h): 147 ± 36.2 µM; IC50 ([5]; Homo sapiens, Endothelial cell, 72 h): 25.8 ± 6.71 µM
O=c1cc(-c2ccccc2)oc2c(O)c(O)cc(O)c12 [Compound 9, 8-hydroxychrysin] | 14.173 ± 1.591 µmol trolox per µmol of tested | – | – | 120 ± 2.24 | – | 8.038 ± 0.061 µmol trolox per µmol of tested | 8.900 ± 0.582 µmol trolox per µmol of tested | about 170 fold | about 2000 fold | –
O=c1cc(-c2ccc(O)c(O)c2)oc2c(O)c(O)cc(O)c12 [Compound 11, 8-hydroxyluteolin] | 34.450 ± 1.016 µmol trolox per µmol of tested | 238 ± 35.4 | – | 106 ± 1.72 | – | 13.208 ± 0.080 µmol trolox per µmol of tested | 36.895 ± 0.432 µmol trolox per µmol of tested | more than twice as active | – | –
COc1ccc(-c2cc(=O)c3c(O)cc(O)c(O)c3o2)cc1O [Compound 12, 8-Hydroxydiosmetin] | 13.405 ± 0.826 µmol trolox per µmol of tested | 224 ± 15.3 | – | 108 ± 15.4 | – | 8.496 ± 0.040 µmol trolox per µmol of tested | 11.340 ± 0.203 µmol trolox per µmol of tested | – | – | –
O=C1CC(c2ccccc2)Oc2c(O)c(O)cc(O)c21 (centres unmarked) [Compound 13, 8-hydroxypinocembrin] | 20.763 ± 0.939 µmol trolox per µmol of tested | – | – | 148 ± 13.4 | – | 9.164 ± 0.097 µmol trolox per µmol of tested | 12.861 ± 0.313 µmol trolox per µmol of tested | about 130 fold | about 1800 fold | –
COc1ccc(C2CC(=O)c3c(O)cc(O)c(O)c3O2)cc1O (centres unmarked) [Compound 18, 8-hydroxyhesperetin] | 31.187 ± 1.353 µmol trolox per µmol of tested | – | 135 ± 20.3 | 97.1 ± 5.15 | – | 14.150 ± 0.229 µmol trolox per µmol of tested | 25.260 ± 0.909 µmol trolox per µmol of tested | more than twice as active | 144 fold | increase of antioxidant activity in FRAP test, biotransformation product vs substrate ([10]; 8-hydroxylated product relative to the substrate from which it was obtained): 6 fold
